Values quoted from earlier work in article PMC4101043 (Antiviral research, 2014).
Where two headings read alike, the source gives them in different places.

What was measured:
UGTs = details: stated as known, no reference given
Wild-Type HIV-1 NL4-3 = details: MT-4 cells
[1] = dosage and study duration differ
[2] = CPE inhibition, ref Okello et al., 2013a

| Structure (SMILES) | UGT substrate status / dependence on UGTs for clearance (UGTs) | EC50 (Wild-Type HIV-1 NL4-3; ref Kobayashi et al., 2011) [nM] | NOAEL ([1]; adult rats, ref Rhodes et al., 2012) [mg/kg/day] | EC50 (Wild-Type HIV-1 NL4-3; [2]) [nM] | NOAEL ([1]; ref Merck, 2007) [mg/kg/day] | t1/2 (rats, po doses of 40–120 mg/kg, ref Merck, 2007) [h] | Cl rate (rats, ref Laufer et al., 2009) [L/h/kg] | Oral bioavailability (F) (ref Merck, 2007) [%] |
| --- | --- | --- | --- | --- | --- | --- | --- | --- |
| C[C@@H]1CCO[C@H]2Cn3cc(C(=O)NCc4ccc(F)cc4F)c(=O)c(O)c3C(=O)N12 [dolutegravir] | substrates and depend on UGTs for clearance | 0.71 | 50 | – | – | – | – | – |
| COc1cc2c(cc1Cc1cccc(Cl)c1F)c(=O)c(C(=O)O)cn2[C@H](CO)C(C)C [elvitegravir] | substrates and depend on UGTs for clearance | – | – | 0.82 | – | – | – | – |
| Cc1nnc(C(=O)NC(C)(C)c2nc(C(=O)NCc3ccc(F)cc3)c(O)c(=O)n2C)o1 [raltegravir] | substrates and depend on UGTs for clearance | – | – | 6.54 | 120 | ≤ 1.6 | 2.298 | 32 |
